From patent US20040220266A1, “Composition and method for enhancing the bioavailability of calcium and magnesium in dietary supplements and food additives” (priority 2002, published 2004)

Key:
[1] = saturated aqueous solution, 20° C.; cited from earlier work
[2] = oral dietary supplement; cited from earlier work
[3] = Storage stability of the powders; type: physicochemical; conditions: shelf life
[4] = Solubility in water / saturated aqueous solution
Text: The term “soluble” as used herein means capable of being dissolved, going into a liquid state from a solid state.

## d-gluconic acid calcium salt [Calcium gluconate]
[1]
  pH of saturated solution: 6-7

## O.O.O=P([O-])([O-])O.[Ca+2] [dibasic calcium phosphate dihydrate]
[2]
  bioavailability / absorption of calcium (in words): poor

## O=P([O-])([O-])[O-].O=P([O-])([O-])[O-].[Ca+2].[Ca+2].[Ca+2] [tribasic calcium phosphate]
[2]
  bioavailability / absorption of calcium (in words): poor

## CC(O)C(=O)[O-].CC(O)C(=O)[O-].O.O.O.O.O.[Ca+2] (stereo not shown) [calcium lactate pentahydrate, 2-hydroxypropanoic acid calcium salt pentahydrate]
[2]
  bioavailability / absorption of calcium (in words): good

## O.O.O.O.O=C([O-])CC(O)(CC(=O)[O-])C(=O)[O-].O=C([O-])CC(O)(CC(=O)[O-])C(=O)[O-].[Ca+2].[Ca+2].[Ca+2] [Calcium citrate tetrahydrate]
[2]
  bioavailability / absorption of calcium (in words): better absorbed than the carbonate or phosphates of calcium

## magnesium 3-hydroxy-3-methylbutyrate [MgHMB]
[3]
  stability of the powder (in words): stable powders with long shelf lives
[4]; 20° C.
  concentration of saturated aqueous solution: 32 % by weight
[4]; broad range of pH values
  solubility over pH range (in words): highly soluble
[4]; pure salt dissolved in water
  pH of aqueous solution (in words): nearly neutral or slightly alkaline

## O=C([O-])[O-].[Ca+2] [Calcium carbonate]
[2]
  bioavailability / absorption of calcium (in words): relatively poor
